In US7491819B1 (priority 2004, dated 2009) one finds IC50 data, which are given here for twelve compounds.

The assay deals with T1, HIV-integrase (Human immunodeficiency virus type 1 group M subtype B, UniProt P12497).
T1 construct: Recombinant integrase (0.26 ng) was incubated with the beads
Put plainly: HIV-Integrase Inhibition Activity (SPA bead strand-transfer assay). The note with it: Table 1; read-out: Activity (HIV-integrase inhibition, IC50 class). The assay is classed as biochemical. In outline:
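Strand-transfer read-out: CPM from P33-labelled target DNA (0.1 fmol) joined to bead-bound biotin substrate DNA (5 pmole), with EDTA stop at 10 mM final. Integrase (0.26 ng) prebound to streptavidin SPA beads 90 min, 37° C, and washed before adding inhibitor.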

Consider `Cc1ncn(-c2ccc(CNC(=O)c3nc4n(c(=O)c3O)CCOC4(C)C)c(F)c2)n1` [Example 83, Pyrimido[2,1-c][1,4]oxazine-2-carboxamide, N-[[2-fluoro-4-(3-methyl-1H-1,2,4-triazol-1-yl)phenyl]methyl]-4,6,7,9-tetrahydro-3-hydroxy-9,9-dimethyl-4-oxo-], for which the concentration for half-maximal inhibition (IC50) (usually the concentration at which inhibition is half-maximal) is greater than 1 µM. In the case of `CC1(C)OCCn2c1nc(C(=O)NCc1ccc(F)cc1-c1csnn1)c(O)c2=O` [Example 84, Pyrimido[2,1-c][1,4]oxazine-2-carboxamide, N-[[4-fluoro-2-(1,2,3-thiadiazol-4-yl)phenyl]methyl]-4,6,7,9-tetrahydro-3-hydroxy-9,9-dimethyl-4-oxo-] it was 0.002 to 0.1 µM. Turning to `CC1(C)OCCn2c1nc(C(=O)NCc1ccc(F)cc1-c1ccn[nH]1)c(O)c2=O` [Example 85, Pyrimido[2,1-c][1,4]oxazine-2-carboxamide, N-[[4-fluoro-2-(1H-pyrazol-5-yl)phenyl]methyl]-4,6,7,9-tetrahydro-3-hydroxy-9,9-dimethyl-4-oxo-], the half-inhibitory concentration (IC50) fell in the range of 0.002 to 0.1 µM. In the case of `Cc1cnc(-c2cc(F)ccc2CNC(=O)c2nc3n(c(=O)c2O)CCOC3(C)C)o1` [Example 86, Pyrimido[2,1-c][1,4]oxazine-2-carboxamide, N-[[4-fluoro-2-(5-methyl-2-oxazolyl)phenyl]methyl]-4,6,7,9-tetrahydro-3-hydroxy-9,9-dimethyl-4-oxo-] it was 0.002 to 0.1 µM. Take `CCNc1cc(F)ccc1CNC(=O)c1nc2n(c(=O)c1O)CCOC2(C)C` [Example 87, Pyrimido[2,1-c][1,4]oxazine-2-carboxamide, N-[[2-(ethylamino)-4-fluorophenyl]methyl]-4,6,7,9-tetrahydro-3-hydroxy-9,9-dimethyl-4-oxo-]: the IC50 fell in the range of 0.002 to 0.1 µM. With `C#Cc1cc(F)ccc1CNC(=O)c1nc2n(c(=O)c1O)CCOC2(C)C` [Example 88, Pyrimido[2,1-c][1,4]oxazine-2-carboxamide, N-[(2-ethynyl-4-fluorophenyl)methyl]-4,6,7,9-tetrahydro-3-hydroxy-9,9-dimethyl-4-oxo-], the IC50 lay within 0.002 to 0.1 µM. `CC1(C)OCCn2c1nc(C(=O)NCc1ccc(F)cc1C#CCO)c(O)c2=O` [Example 89, Pyrimido[2,1-c][1,4]oxazine-2-carboxamide, N-[[4-fluoro-2-(3-hydroxy-1-propynyl)phenyl]methyl]-4,6,7,9-tetrahydro-3-hydroxy-9,9-dimethyl-4-oxo-]: the IC50 is 0.002 to 0.1 µM. In the case of `CC1(C)OCCn2c1nc(C(=O)NCc1ccc(F)cc1C#CCOS(C)(=O)=O)c(O)c2=O` [Example 90, Pyrimido[2,1-c][1,4]oxazine-2-carboxamide, N-[[4-fluoro-2-[3-[(methylsulfonyl)oxy]-1-propynyl]phenyl]methyl]-4,6,7,9-tetrahydro-3-hydroxy-9,9-dimethyl-4-oxo-] it was 0.002 to 0.1 µM.

`CN(C)CC#Cc1cc(F)ccc1CNC(=O)c1nc2n(c(=O)c1O)CCOC2(C)C` [Example 91, Pyrimido[2,1-c][1,4]oxazine-2-carboxamide, N-[[2-[3-(dimethylamino)-1-propynyl]-4-fluorophenyl]methyl]-4,6,7,9-tetrahydro-3-hydroxy-9,9-dimethyl-4-oxo-]: the IC50 lay in the range of 0.002 to 0.1 µM. In the case of `CC1(C)OCCn2c1nc(C(=O)NCc1ccc(F)cc1C#CCS(C)(=O)=O)c(O)c2=O` [Example 92, Pyrimido[2,1-c][1,4]oxazine-2-carboxamide, N-[[4-fluoro-2-[3-(methylsulfonyl)-1-propynyl]phenyl]methyl]-4,6,7,9-tetrahydro-3-hydroxy-9,9-dimethyl-4-oxo-] it was 0.002 to 0.1 µM; in that of `CC1(C)OCCn2c1nc(C(=O)NCc1ccc(F)cc1C#CCN1CCCCS1(=O)=O)c(O)c2=O` [Example 93, Pyrimido[2,1-c][1,4]oxazine-2-carboxamide, N-[[4-fluoro-2-[3-(tetrahydro-1,1-dioxido-2H-1,2-thiazin-2-yl)-1-propynyl]phenyl]methyl]-4,6,7,9-tetrahydro-3-hydroxy-9,9-dimethyl-4-oxo-], 0.002 to 0.1 µM.

Consider `CC1(C)OCCn2c1nc(C(=O)NCc1cccc3c1NC(=O)C3)c(O)c2=O` [Example 94], for which the half-inhibitory concentration (IC50) lay in the range of 0.002 to 0.1 µM.
